Columns and labels:
[1] = tested on: VSMC migration in primary aortic explants; experiment: Scratch-wound healing in primary aortic explants; assay type: cell-based, mouse
Protocol: (§1) Rates of wound healing in primary explants were calculated from time-lapse images captured at 5-minute intervals after scratch infliction. Experiments were performed in Minimum Essential Medium with 10% fetal calf serum or—to avoid binding of the non-selective Na^+,HCO3^−-cotransport inhibitor S0859 to medium or serum components—in physiological saline solutions (PSS). Cell size was estimated based on cell density in confluent areas. Total filopodia length was determined relative to the length of the migrating front (i.e., twice the scratch length). Cell proliferation was evaluated (a) by counting the relative number of cells dividing during six hours time-lapse imaging and (b) as the proportion of cells positive for the thymidine analogue bromodeoxyuridine (BrdU) after six hours incubation.
(§2) The PSS was composed of (in mM) 134 Na^+, 4 K^+, 1.6 Ca^2+, 1.2 Mg^2+, 111 Cl^−, 24 HCO3^−, 1.2 SO4^2−, 1.18 H2PO4^−, 10 HEPES, 5.5 glucose, 0.03 EDTA. In Na^+-free solutions, Na^+ was substituted with an equimolar amount of N-methyl-D-glucammonium (NMDG^+), except for NaHCO3, which was replaced with choline-HCO3. In HCO3^−-free solutions, HCO3^− was replaced with an equimolar amount of Cl^−. HCO3^−-containing solutions were aerated with a gas mixture of 5% CO2/balance air, whereas HCO3^−-free solutions were gassed with air (i.e., 21% O2/balance N2). All solutions were titrated to pH 7.4 at 37° C.

[2] = tested on: axial pHi gradient in migrating VSMCs of primary aortic explants; experiment: Subcellular pHi by confocal microscopy (carboxy SNARF-1) in migrating VSMCs; assay type: cell-based, mouse
Protocol: (§3) Using wide-field fluorescence microscopy, global pHi was recorded in arteries and primary explants loaded with the pH-sensitive fluorophore BCECF. Recordings of pHi in subcellular domains were performed by confocal fluorescence microscopy of cells loaded with the pH-sensitive fluorophore carboxy SNARF-1. Intracellular buffering capacities were calculated from changes in pHi upon washout of NH4Cl. No difference in total intracellular buffering capacity (β) was seen between primary explants from NBCn1 KO and WT mice (βWT=15±2 mM, βKO=17±2 mM, n=8; P=0.45, unpaired two-tailed Student's t-test) evaluated at pHi 6.65-6.80.
Previous studies from non-vascular cell types propose that increased acid extrusion at the leading edge of migrating cells creates an axial pHi gradient, which can facilitate actin polymerization, filopodia formation, and cell migration. To investigate pH gradients within cells, we measured pHi -differences between the tip of filopodia and the general (perinuclear) cytosol two hours after scratch infliction. […] With the intention of investigating local pHi dynamics in the region of the filopodia, we incubated primary explants in absence of CO2/HCO3^− for two hours after wound infliction to allow for filopodia formation. We then investigated pHi after an additional 15 minutes with or without CO2/HCO3^− or in the presence of pharmacological inhibitors (FIG. 13E,F). […]

[3] = tested on: migrating VSMCs of primary aortic explants; experiment: Filopodia length at the migrating front after scratch infliction; assay type: cell-based, mouse; conditions: for presence of filopodia: 5 μM
Protocol: as §1

[4] = molecular target: T1, NHE1-mediated Na+/H+-exchange in MCF-7 human breast cancer cells (Homo sapiens, UniProt P19634); conditions: Lauritzen et al., 2010; cited from earlier work
T1 construct: net acid extrusion from MCF-7 cells occurs through a combination of NBCn1-mediated Na^+,HCO3^−-cotransport and NHE1-mediated Na^+/H^+-exchange; endogenous in cells; host or cells: MCF-7 human breast cancer cells (Lauritzen et al., 2010)

[5] = tested on: Na+,HCO3−-cotransport in primary aortic explants; experiment: Global pHi recovery and steady-state pHi in primary aortic explants (BCECF); assay type: cell-based, mouse
Protocol: Primary explants were produced from thoracic aortas and common carotid arteries of NBCn1 KO and wild-type (WT) mice. To best maintain the cell morphology and phenotype of native VSMCs, cultured cells were never passaged but investigated directly in primary explants.
as §3
The PSS was composed of (in mM) 134 Na^+, 4 K^+, 1.6 Ca^2+, 1.2 Mg^2+, 111 Cl^−, 24 HCO3^−, 1.2 SO4^2−, 1.18 H2PO4^−, 10 HEPES, 5.5 glucose, 0.03 EDTA. In Na^+-free solutions, Na^+ was substituted with an equimolar amount of N-methyl-D-glucammonium (NMDG^+), except for NaHCO3, which was replaced with choline-HCO3. In HCO3^−-free solutions, HCO3^− was replaced with an equimolar amount of Cl^−. […]

[6] = earlier work; cited from earlier work
[7] = tested on: Na+,HCO3−-cotransport in isolated arteries; conditions: previously shown; cited from earlier work
[8] = tested on: VSMCs of primary aortic explants; experiment: VSMC proliferation by time-lapse counting of mitoses; assay type: cell-based, mouse; conditions: 5 μM, PSS, six hours time-lapse
Protocol: as §1

[9] = tested on: Na+,HCO3−-cotransport in breast cancer slices or freshly isolated breast cancer organoids; conditions: earlier work; cited from earlier work
[10] = tested on: primary aortic explants; experiment: Cell integrity, morphology and viability during 18 hours of time-lapse imaging; assay type: cell-based, mouse
Protocol: as §1, §2

[11] = molecular target: T2, NBCn1-mediated Na+,HCO3−-cotransport in MCF-7 human breast cancer cells (Homo sapiens, UniProt Q9Y6M7); conditions: earlier work; cited from earlier work
T2 construct: net acid extrusion from MCF-7 cells occurs through a combination of NBCn1-mediated Na^+,HCO3^−-cotransport and NHE1-mediated Na^+/H^+-exchange; endogenous in cells; host or cells: MCF-7 human breast cancer cells (Lauritzen et al., 2010)
T2 sequence (Q9Y6M7 1-1214): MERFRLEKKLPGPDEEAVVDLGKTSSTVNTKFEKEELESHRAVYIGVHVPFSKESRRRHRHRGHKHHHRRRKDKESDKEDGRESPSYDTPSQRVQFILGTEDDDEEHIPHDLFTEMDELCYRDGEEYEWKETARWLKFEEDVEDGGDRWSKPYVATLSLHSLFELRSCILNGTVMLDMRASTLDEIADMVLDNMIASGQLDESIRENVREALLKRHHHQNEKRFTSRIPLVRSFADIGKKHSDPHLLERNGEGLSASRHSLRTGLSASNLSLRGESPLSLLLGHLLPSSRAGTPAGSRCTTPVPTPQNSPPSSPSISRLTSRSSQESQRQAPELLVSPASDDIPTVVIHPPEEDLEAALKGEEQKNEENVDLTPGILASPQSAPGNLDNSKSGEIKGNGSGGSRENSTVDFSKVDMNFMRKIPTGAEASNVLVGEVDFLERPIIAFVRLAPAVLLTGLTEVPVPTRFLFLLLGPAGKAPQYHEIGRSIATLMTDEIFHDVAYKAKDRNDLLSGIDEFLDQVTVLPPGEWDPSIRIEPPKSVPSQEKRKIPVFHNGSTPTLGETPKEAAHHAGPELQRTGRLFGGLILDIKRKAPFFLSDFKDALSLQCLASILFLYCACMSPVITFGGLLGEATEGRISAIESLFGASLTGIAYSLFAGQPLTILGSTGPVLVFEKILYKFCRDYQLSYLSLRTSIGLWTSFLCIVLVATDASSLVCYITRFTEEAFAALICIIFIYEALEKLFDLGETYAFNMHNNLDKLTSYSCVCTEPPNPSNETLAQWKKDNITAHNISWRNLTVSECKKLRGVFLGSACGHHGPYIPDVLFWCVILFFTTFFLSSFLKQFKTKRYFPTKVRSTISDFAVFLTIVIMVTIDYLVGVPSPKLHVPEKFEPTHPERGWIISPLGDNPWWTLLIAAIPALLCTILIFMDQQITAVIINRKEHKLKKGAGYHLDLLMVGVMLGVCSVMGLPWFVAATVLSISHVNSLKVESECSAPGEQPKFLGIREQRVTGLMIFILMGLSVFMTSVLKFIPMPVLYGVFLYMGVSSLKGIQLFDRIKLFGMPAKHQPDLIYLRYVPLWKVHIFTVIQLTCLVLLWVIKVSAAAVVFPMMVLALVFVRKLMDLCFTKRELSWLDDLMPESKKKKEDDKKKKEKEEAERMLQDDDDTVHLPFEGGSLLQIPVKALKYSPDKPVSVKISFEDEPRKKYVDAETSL

T1 sequence (P19634 whole entry): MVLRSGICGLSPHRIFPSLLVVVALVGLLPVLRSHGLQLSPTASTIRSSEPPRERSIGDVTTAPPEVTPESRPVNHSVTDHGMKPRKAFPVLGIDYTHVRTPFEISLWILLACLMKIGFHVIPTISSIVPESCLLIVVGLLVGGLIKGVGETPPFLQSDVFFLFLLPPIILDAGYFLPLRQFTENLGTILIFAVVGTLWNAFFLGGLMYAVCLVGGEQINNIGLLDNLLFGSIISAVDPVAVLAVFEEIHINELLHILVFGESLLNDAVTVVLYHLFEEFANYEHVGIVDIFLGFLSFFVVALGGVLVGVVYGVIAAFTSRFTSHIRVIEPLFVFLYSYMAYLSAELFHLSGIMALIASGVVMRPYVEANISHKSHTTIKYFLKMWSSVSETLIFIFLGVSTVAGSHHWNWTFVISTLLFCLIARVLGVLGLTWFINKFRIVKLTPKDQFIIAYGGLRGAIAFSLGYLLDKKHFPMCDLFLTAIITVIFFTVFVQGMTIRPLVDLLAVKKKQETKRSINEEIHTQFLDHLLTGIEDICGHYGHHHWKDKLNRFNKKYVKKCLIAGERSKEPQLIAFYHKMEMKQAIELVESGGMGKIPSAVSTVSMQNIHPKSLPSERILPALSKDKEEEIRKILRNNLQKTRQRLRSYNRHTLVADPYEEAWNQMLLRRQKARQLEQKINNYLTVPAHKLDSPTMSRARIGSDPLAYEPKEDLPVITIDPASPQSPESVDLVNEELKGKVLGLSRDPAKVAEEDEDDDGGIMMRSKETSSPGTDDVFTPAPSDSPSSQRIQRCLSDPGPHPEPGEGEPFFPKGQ

Q: Which wound healing ([1]; 10 μM, primary aortic explants from NBCn1 KO and WT mice) does the source give for C[C@@H](N)[C@H]1CC[C@H](C(=O)Nc2ccncc2)CC1 [Y-27632] here?
A: Its wound healing is “stimulated”.

Q: With CC(=O)Nc1nnc(S(N)(=O)=O)s1 [acetazolamide] as the compound, how does the “axial pHi gradients” value ([2]; 100 μM, explants from NBCn1 KO mice, presence of CO2/HCO3-) read?
A: Its value is “reestablishes”.

Q: What about the “initial rate of wound healing” value ([1]; 100 μM, aortic explants from NBCn1 KO mice, CO2/HCO3−-containing medium with serum) of the same compound?
A: Its value is “increased”.

Q: What about the abundance of filopodia ([3]; 100 μM, aortic explants from NBCn1 KO mice, presence of CO2/HCO3-) of the same compound?
A: The abundance of filopodia was “increased abundance”.

Q: With CCN(c1nc(N)c(C(=O)N=C(N)N)nc1Cl)C(C)C [5-(N-Ethyl-N-isopropyl)amiloride] as the compound, how does the “remaining net acid extrusion after inhibition of Na+,HCO3−-cotransport in MCF-7 cells” value [4] read?
A: The value was “inhibited”.

Q: Which results are given for Cc1ccc(CN(Cc2ccc(-c3ccccc3S(=O)(=O)NC#N)cc2)C(=O)c2ccccc2Cl)cc1 [S0859]?
A: Na+,HCO3−-cotransport activity ([5]; primary aortic explants from WT mice, CO2/HCO3- present, 5 and 30 μM): concentration-dependently attenuates; steady-state pHi ([5]; primary aortic explants, five minutes after addition of S0859): concentration-dependently attenuates; protein binding [6]: unusually strong protein binding; pHi of migrating VSMCs, in particular at the tip of filopodia ([2]; 5 μM, 15 minutes exposure, PSS): strongly acidified; cellular net acid extrusion in isolated arteries [7]: does not affect; relative number of mitoses [8]: no effect; effect in breast cancer slices or freshly isolated breast cancer organoids [9]: has no effect; wound healing ([1]; 5 μM, PSS, presence of CO2/HCO3-): inhibited; cell integrity and morphology ([10]; 5 μM, 18 hours, PSS with CO2/HCO3-): well-maintained; cell morphology ([10]; 30 μM, 18 hours, PSS with CO2/HCO3-): severe morphological changes; cell viability ([10]; primary explants, CO2/HCO3−-containing PSS, FIG. 16): causes loss of cell viability; presence of filopodia ([3]; CO2/HCO3−-free conditions): unaffected; presence of filopodia ([3]; explants from WT mice, CO2/HCO3−-containing PSS): reduced; Na+,HCO3−-cotransport in cultures of MCF7 breast cancer cells [11]: inhibits
